Experimental data reported in PMC5218480 (PLoS ONE, 2017).

Tested on: MV-4-11 cells
Assay: Gene expression microarray analysis (Affymetrix PrimeView) and GSEA
Format: cell-based, human
Design: RFU PODN (11730768_x_at) / Fold change /veh PODN (11730768_x_at) / RFU LINC00158 (11744669_a_at) / Fold change /veh LINC00158 (11744669_a_at) / RFU DUSP10 (11751237_a_at) / Fold change /veh DUSP10 (11751237_a_at) / RFU ID3 (11757404_x_at) / Fold change /veh ID3 (11757404_x_at) / RFU PLEKHG5 (11737974_s_at) / Fold change /veh PLEKHG5 (11737974_s_at) / RFU LRRC4B (11730491_at) / Fold change /veh LRRC4B (11730491_at) / RFU GIMAP4 (11747438_a_at) / Fold change /veh GIMAP4 (11747438_a_at) / RFU KRT8 (11758183_x_at) / Fold change /veh KRT8 (11758183_x_at) / RFU CNN1 (11734310_a_at) / Fold change /veh CNN1 (11734310_a_at) / RFU VPS37D (11726825_at) / Fold change /veh VPS37D (11726825_at) / RFU C10orf10 (11716522_x_at) / Fold change /veh C10orf10 (11716522_x_at) / RFU KIR2DL2 /// KIR2DL4 /// KIR2DL5A /// KIR2DL5B /// KIR2DS1 /// KIR2DS2 /// KIR2DS3 /// KIR2DS4 /// KIR3DL3 /// KIR3DL3 /// KIR3DS1 (11738374_at) / Fold change /veh KIR2DL2 /// KIR2DL4 /// KIR2DL5A /// KIR2DL5B /// KIR2DS1 /// KIR2DS2 /// KIR2DS3 /// KIR2DS4 /// KIR3DL3 /// KIR3DL3 /// KIR3DS1 (11738374_at) / RFU C1QL1 (11718748_at) / Fold change /veh C1QL1 (11718748_at) / RFU TMPRSS4 (11747572_a_at) / Fold change /veh TMPRSS4 (11747572_a_at) / RFU HAMP (11756126_x_at) / Fold change /veh HAMP (11756126_x_at) / RFU RNFT2 (11725882_a_at) / Fold change /veh RNFT2 (11725882_a_at) / RFU NR4A2 (11747474_a_at) / Fold change /veh NR4A2 (11747474_a_at) / RFU ABCC12 (11746883_a_at) / Fold change /veh ABCC12 (11746883_a_at) / RFU TMEM136 (11760407_x_at) / Fold change /veh TMEM136 (11760407_x_at) / RFU CLDN22 /// WWC2 (11732394_at) / Fold change /veh CLDN22 /// WWC2 (11732394_at) / RFU HLA-DPB1 (11760878_x_at) / Fold change /veh HLA-DPB1 (11760878_x_at) / RFU SPINT1 (11716480_a_at) / Fold change /veh SPINT1 (11716480_a_at) / RFU GAP43 (11754022_s_at) / Fold change /veh GAP43 (11754022_s_at) / RFU A4GNT (11735810_at) / Fold change /veh A4GNT (11735810_at) / RFU PRB3 (11715151_x_at) / Fold change /veh PRB3 (11715151_x_at) / RFU TUBB4B (11761932_at) / Fold change /veh TUBB4B (11761932_at) / RFU CAPN14 (11732068_a_at) / Fold change /veh CAPN14 (11732068_a_at) / RFU TMCC2 (11721928_a_at) / Fold change /veh TMCC2 (11721928_a_at) / RFU IRGQ (11745062_a_at) / Fold change /veh IRGQ (11745062_a_at) / RFU FAM174B (11720279_a_at) / Fold change /veh FAM174B (11720279_a_at) / RFU TMPRSS4 (11748680_a_at) / Fold change /veh TMPRSS4 (11748680_a_at) / RFU FAM212B (11763350_a_at) / Fold change /veh FAM212B (11763350_a_at) / RFU PLEKHG5 (11743358_a_at) / Fold change /veh PLEKHG5 (11743358_a_at) / RFU ZSCAN30 (11745921_a_at) / Fold change /veh ZSCAN30 (11745921_a_at) / RFU CMKLR1 (11741424_a_at) / Fold change /veh CMKLR1 (11741424_a_at) / RFU LOC101060620 /// MAPK8IP1 (11723275_at) / Fold change /veh LOC101060620 /// MAPK8IP1 (11723275_at) / RFU SPTSSB (11747773_x_at) / Fold change /veh SPTSSB (11747773_x_at) / RFU PRSS12 (11739890_at) / Fold change /veh PRSS12 (11739890_at) / RFU BIN1 (11741810_x_at) / Fold change /veh BIN1 (11741810_x_at) / RFU WNT11 (11732464_a_at) / Fold change /veh WNT11 (11732464_a_at) / RFU C10orf10 (11716521_a_at) / Fold change /veh C10orf10 (11716521_a_at) / RFU C5orf56 (11738089_at) / Fold change /veh C5orf56 (11738089_at) / RFU CYB561 (11721691_x_at) / Fold change /veh CYB561 (11721691_x_at) / RFU ANKRD19P (11752326_a_at) / Fold change /veh ANKRD19P (11752326_a_at) / RFU OR2T12 /// OR2T33 /// OR2T8 (11738714_s_at) / Fold change /veh OR2T12 /// OR2T33 /// OR2T8 (11738714_s_at) / RFU VCAN (11748164_a_at) / Fold change /veh VCAN (11748164_a_at) / RFU JSRP1 (11732532_at) / Fold change /veh JSRP1 (11732532_at) / RFU KRTAP10-11 (11738290_x_at) / Fold change /veh KRTAP10-11 (11738290_x_at) / RFU MYO3A (11730013_a_at) / Fold change /veh MYO3A (11730013_a_at) / RFU EBF3 (11725865_a_at) / Fold change /veh EBF3 (11725865_a_at) / RFU CAMK2N1 (11719241_x_at) / Fold change /veh CAMK2N1 (11719241_x_at) / RFU C5orf56 (11738088_a_at) / Fold change /veh C5orf56 (11738088_a_at) / RFU OLFML3 (11715873_a_at) / Fold change /veh OLFML3 (11715873_a_at) / RFU LOC100653217 /// NTM (11731650_a_at) / Fold change /veh LOC100653217 /// NTM (11731650_a_at) / RFU MAPK11 (11762145_a_at) / Fold change /veh MAPK11 (11762145_a_at) / RFU FIZ1 (11724087_x_at) / Fold change /veh FIZ1 (11724087_x_at) / RFU OASL (11726364_x_at) / Fold change /veh OASL (11726364_x_at) / RFU SOX15 (11748057_x_at) / Fold change /veh SOX15 (11748057_x_at) / RFU CD79A (11719716_a_at) / Fold change /veh CD79A (11719716_a_at) / RFU HIST1H1D (11736915_at) / Fold change /veh HIST1H1D (11736915_at) / RFU CASKIN2 (11723855_a_at) / Fold change /veh CASKIN2 (11723855_a_at) / RFU LOC730098 (11760151_x_at) / Fold change /veh LOC730098 (11760151_x_at) / RFU OR4N2 (11742367_at) / Fold change /veh OR4N2 (11742367_at) / RFU PRRT2 (11749266_a_at) / Fold change /veh PRRT2 (11749266_a_at) / RFU SNX32 (11753110_a_at) / Fold change /veh SNX32 (11753110_a_at) / RFU CDHR5 (11726645_a_at) / Fold change /veh CDHR5 (11726645_a_at) / RFU RCAN1 (11760418_a_at) / Fold change /veh RCAN1 (11760418_a_at) / RFU FAM167A (11723789_a_at) / Fold change /veh FAM167A (11723789_a_at) / RFU FAM26E (11764081_at) / Fold change /veh FAM26E (11764081_at) / RFU ISYNA1 (11749810_s_at) / Fold change /veh ISYNA1 (11749810_s_at) / RFU ACY1 (11761880_at) / Fold change /veh ACY1 (11761880_at) / RFU 11764098_at / Fold change /veh 11764098_at / RFU SAMD14 (11745864_x_at) / Fold change /veh SAMD14 (11745864_x_at) / RFU NPB (11741838_a_at) / Fold change /veh NPB (11741838_a_at) / RFU TMPRSS6 (11731388_a_at) / Fold change /veh TMPRSS6 (11731388_a_at) / RFU KRTAP10-2 (11738614_at) / Fold change /veh KRTAP10-2 (11738614_at) / RFU ARHGAP8 /// PRR5-ARHGAP8 (11727945_x_at) / Fold change /veh ARHGAP8 /// PRR5-ARHGAP8 (11727945_x_at) / RFU KRTAP5-7 /// NADSYN1 (11734609_at) / Fold change /veh KRTAP5-7 /// NADSYN1 (11734609_at) / RFU RASL12 (11751679_a_at) / Fold change /veh RASL12 (11751679_a_at) / RFU CDKN2B (11736163_a_at) / Fold change /veh CDKN2B (11736163_a_at) / RFU PRF1 (11729649_at) / Fold change /veh PRF1 (11729649_at) / RFU, ZNF638 /// ZNF638-IT1 / Fold change vs veh, ZNF638 /// ZNF638-IT1 / RFU, PANK3 / Fold change vs veh, PANK3 / RFU, SH3YL1 / Fold change vs veh, SH3YL1 / RFU, ZEB2 / Fold change vs veh, ZEB2 / RFU, NRIP1 / Fold change vs veh, NRIP1 / RFU, PTTG1IP / Fold change vs veh, PTTG1IP / RFU, CAPN2 / Fold change vs veh, CAPN2 / RFU, MED14 / Fold change vs veh, MED14 / RFU, SNORA58 / Fold change vs veh, SNORA58 / RFU, C1orf63 / Fold change vs veh, C1orf63 / RFU, LRRFIP1 / Fold change vs veh, LRRFIP1 / RFU, NDUFAF7 / Fold change vs veh, NDUFAF7 / RFU, SLC12A2 / Fold change vs veh, SLC12A2 / RFU, IBTK / Fold change vs veh, IBTK / RFU, ESF1 / Fold change vs veh, ESF1 / Fold change vs veh, TMEM50B / RFU, TAOK1 / Fold change vs veh, TAOK1 / RFU, ACBD3 / Fold change vs veh, ACBD3 / RFU, TMA16 / Fold change vs veh, TMA16 / RFU, RWDD3 / Fold change vs veh, RWDD3 / RFU, BCAT1 / Fold change vs veh, BCAT1 / RFU, EDEM3 / Fold change vs veh, EDEM3 / RFU, TMEM33 / Fold change vs veh, TMEM33 / RFU, WDR75 / Fold change vs veh, WDR75 / RFU, AHCTF1 / Fold change vs veh, AHCTF1 / RFU, TFRC / Fold change vs veh, TFRC / RFU, ZDHHC17 / Fold change vs veh, ZDHHC17 / RFU, NOM1 / Fold change vs veh, NOM1 / RFU, ARL8B / Fold change vs veh, ARL8B / RFU, ZBTB11 / Fold change vs veh, ZBTB11 / RFU, TAMM41 / Fold change vs veh, TAMM41 / RFU, KIAA1704 /// LOC100996395 / Fold change vs veh, KIAA1704 /// LOC100996395 / RFU, ING1 / Fold change vs veh, ING1 / RFU, TRMT61B / Fold change vs veh, TRMT61B / RFU, FUBP3 / Fold change vs veh, FUBP3 / RFU, TP53 / Fold change vs veh, TP53 / RFU, TNKS2 / Fold change vs veh, TNKS2 / RFU, ZFP14 / Fold change vs veh, ZFP14 / RFU, ACTR2 / Fold change vs veh, ACTR2 / RFU, PPP3R1 / Fold change vs veh, PPP3R1 / RFU, PIK3R1 / Fold change vs veh, PIK3R1 / RFU, HNRNPA1 / Fold change vs veh, HNRNPA1 / RFU, RNF170 / Fold change vs veh, RNF170 / RFU, ZNF28 / Fold change vs veh, ZNF28 / RFU, RNGTT / Fold change vs veh, RNGTT / RFU, OGT / Fold change vs veh, OGT / RFU, BRD1 / Fold change vs veh, BRD1 / RFU, MARS / Fold change vs veh, MARS / RFU, ZNF655 / Fold change vs veh, ZNF655 / RFU, FAHD1 / Fold change vs veh, FAHD1 / RFU, BDP1 / Fold change vs veh, BDP1 / RFU, LRRCC1 / Fold change vs veh, LRRCC1 / RFU, ARID1A / Fold change vs veh, ARID1A / RFU, ZNF146 / Fold change vs veh, ZNF146 / RFU, ZNF330 / Fold change vs veh, ZNF330 / RFU, GPN3 / Fold change vs veh, GPN3 / RFU, C9orf123 / Fold change vs veh, C9orf123 / RFU, N4BP2L2 / Fold change vs veh, N4BP2L2 / RFU, ARFIP1 / Fold change vs veh, ARFIP1 / RFU, FAM179B / Fold change vs veh, FAM179B / RFU, BCL10 / Fold change vs veh, BCL10 / RFU, UHRF1BP1L / Fold change vs veh, UHRF1BP1L / RFU, BET1 / Fold change vs veh, BET1 / RFU, CNOT2 / Fold change vs veh, CNOT2 / RFU, ZNF268 / Fold change vs veh, ZNF268 / Fold change vs veh, ZNF507 / RFU, DGCR2 / Fold change vs veh, DGCR2 / RFU, WDSUB1 / Fold change vs veh, WDSUB1 / Fold change vs veh, HSP90B1 /// MIR3652 / RFU, ADSS / Fold change vs veh, ADSS / RFU, GK / Fold change vs veh, GK / RFU, ZNF148 / Fold change vs veh, ZNF148 / RFU, TAF9 / Fold change vs veh, TAF9 / RFU, SLC1A5 / Fold change vs veh, SLC1A5 / RFU, SLMO2 / Fold change vs veh, SLMO2 / RFU, ABCC4 / Fold change vs veh, ABCC4 / RFU, LOC101060439 /// RAP1B / Fold change vs veh, LOC101060439 /// RAP1B / RFU, RFX7 / Fold change vs veh, RFX7 / RFU, GTPBP10 / Fold change vs veh, GTPBP10 / RFU, CNEP1R1 / Fold change vs veh, CNEP1R1 / RFU, BIVM-ERCC5 /// ERCC5 / Fold change vs veh, BIVM-ERCC5 /// ERCC5 / RFU, ILF3 / Fold change vs veh, ILF3 / RFU 11762660_at / Fold change /veh 11762660_at / RFU VCAN (11757783_s_at) / Fold change /veh VCAN (11757783_s_at) / RFU DDX43 (11728927_at) / Fold change /veh DDX43 (11728927_at) / RFU KRT8 (11758188_x_at) / Fold change /veh KRT8 (11758188_x_at) / RFU NKD1 (11759106_at) / Fold change /veh NKD1 (11759106_at) / RFU SRD5A1 (11742802_a_at) / Fold change /veh SRD5A1 (11742802_a_at) / RFU TPSAB1 /// TPSB2 (11721975_s_at) / Fold change /veh TPSAB1 /// TPSB2 (11721975_s_at) / RFU GSTM3 (11746129_a_at) / Fold change /veh GSTM3 (11746129_a_at) / RFU IL23R (11737362_x_at) / Fold change /veh IL23R (11737362_x_at) / RFU TMEM51 (11727254_a_at) / Fold change /veh TMEM51 (11727254_a_at) / RFU PIWIL2 (11732686_x_at) / Fold change /veh PIWIL2 (11732686_x_at) / RFU ORM1 (11744905_x_at) / Fold change /veh ORM1 (11744905_x_at) / RFU CCDC152 (11743942_at) / Fold change /veh CCDC152 (11743942_at) / RFU ECM1 (11717891_a_at) / Fold change /veh ECM1 (11717891_a_at) / RFU IL23R (11748794_a_at) / Fold change /veh IL23R (11748794_a_at) / RFU TNFAIP8L3 (11732012_x_at) / Fold change /veh TNFAIP8L3 (11732012_x_at) / RFU MBOAT4 (11741988_at) / Fold change /veh MBOAT4 (11741988_at) / RFU 11764193_at / Fold change /veh 11764193_at / RFU TMEM53 (11763286_at) / Fold change /veh TMEM53 (11763286_at) / RFU MAGEB2 (11727129_at) / Fold change /veh MAGEB2 (11727129_at) / RFU TMEM200A (11744735_a_at) / Fold change /veh TMEM200A (11744735_a_at) / RFU CCDC152 (11751479_a_at) / Fold change /veh CCDC152 (11751479_a_at) / RFU FAM211A (11726209_a_at) / Fold change /veh FAM211A (11726209_a_at) / RFU RGS16 (11746705_a_at) / Fold change /veh RGS16 (11746705_a_at) / RFU VCAN (11755009_s_at) / Fold change /veh VCAN (11755009_s_at) / RFU RHOB (11743442_s_at) / Fold change /veh RHOB (11743442_s_at) / RFU RGS16 (11720943_a_at) / Fold change /veh RGS16 (11720943_a_at) / RFU RGS16 (11720944_at) / Fold change /veh RGS16 (11720944_at) / RFU, VPS4B / Fold change vs veh, VPS4B / RFU, CREB1 / Fold change vs veh, CREB1 / RFU, DNAJC13 / Fold change vs veh, DNAJC13 / RFU, GNAQ / Fold change vs veh, GNAQ / RFU, CDK5R1 / Fold change vs veh, CDK5R1 / RFU, ZRANB3 / Fold change vs veh, ZRANB3 / RFU, CUL4A / Fold change vs veh, CUL4A / RFU, CCNY / Fold change vs veh, CCNY / RFU, UFL1 / Fold change vs veh, UFL1 / RFU, COG3 / Fold change vs veh, COG3 / RFU, DIAPH2 / Fold change vs veh, DIAPH2 / RFU, SKA2 / Fold change vs veh, SKA2 / RFU, AFF3 / Fold change vs veh, AFF3 / RFU, LMF1 / Fold change vs veh, LMF1 / RFU, IPO11 / Fold change vs veh, IPO11 / RFU, DFFB / Fold change vs veh, DFFB / RFU, FOXP1 / Fold change vs veh, FOXP1 / RFU, CARD8 / Fold change vs veh, CARD8 / RFU, STRN3 / Fold change vs veh, STRN3 / RFU, ADK / Fold change vs veh, ADK / RFU, RASSF2 / Fold change vs veh, RASSF2 / RFU, WIPF1 / Fold change vs veh, WIPF1 / RFU, LARP1B / Fold change vs veh, LARP1B / RFU, RASA1 / Fold change vs veh, RASA1 / RFU, RB1 / Fold change vs veh, RB1 / RFU, PPFIA1 / Fold change vs veh, PPFIA1 / RFU, MAT2A / Fold change vs veh, MAT2A / RFU, CCT5 / Fold change vs veh, CCT5 / RFU, WDR92 / Fold change vs veh, WDR92 / RFU, CUX1 / Fold change vs veh, CUX1 / RFU, TTC7A / Fold change vs veh, TTC7A / RFU, TMEM135 / Fold change vs veh, TMEM135 / RFU, DEPTOR / Fold change vs veh, DEPTOR / RFU, CPM / Fold change vs veh, CPM / RFU, DNAJB6 / Fold change vs veh, DNAJB6 / RFU, CACNA2D3 / Fold change vs veh, CACNA2D3 / RFU, DTX4 / Fold change vs veh, DTX4 / RFU, TFCP2 / Fold change vs veh, TFCP2 / RFU, GMCL1 /// GMCL1P1 / Fold change vs veh, GMCL1 /// GMCL1P1 / RFU, AEBP2 / Fold change vs veh, AEBP2 / RFU, SNHG1 /// SNORD22 /// SNORD25 /// SNORD26 /// SNORD27 /// SNORD28 /// SNORD29 /// SNORD31 / Fold change vs veh, SNHG1 /// SNORD22 /// SNORD25 /// SNORD26 /// SNORD27 /// SNORD28 /// SNORD29 /// SNORD31 / Fold change (Aza/veh), C12orf56 (ProbeSet 11735607_a_at) / Fold change (ACY-1035/veh), C12orf56 (ProbeSet 11735607_a_at) / Fold change (Aza/veh), FGFR1OP (ProbeSet 11751329_s_at) / Fold change (ACY-1035/veh), FGFR1OP (ProbeSet 11751329_s_at) / Fold change (Aza/veh), VPS36 (ProbeSet 11739960_a_at) / Fold change (ACY-1035/veh), VPS36 (ProbeSet 11739960_a_at) / RFU SYPL1 (11715823_x_at) / Fold change /veh SYPL1 (11715823_x_at) / RFU IGFBP7 (11715501_s_at) / Fold change /veh IGFBP7 (11715501_s_at) / RFU REEP3 (11722064_at) / Fold change /veh REEP3 (11722064_at) / RFU IGLL1 (11728026_x_at) / Fold change /veh IGLL1 (11728026_x_at): dose or concentration left out as unconfirmed
Details: ProbeSet 11753234_a_at; LIST B

Q: Which “RFU, TAMM41” value does the source give for `Nc1ncn([C@@H]2O[C@H](CO)[C@@H](O)[C@H]2O)c(=O)n1` [azacitidine] here?
A: Its value is 52.96 RFU.
